The results in this text go back to ChEMBL document CHEMBL1150806, “A new macrocyclic trichothecene, 12,13-deoxyroridin E, produced by the marine-derived fungus Myrothecium roridum collected in Palau” (J Nat Prod, 2001).

One test has as its system HL-60. Kind of test: Cytotoxicity against human HL60 cells after 72 hrs by WST8 assay. The test is classed as functional, cell-based. (In general: Tetrazolium assays rely on reduction of a dye to a coloured formazan, in cell work by metabolically active cells.)
The next test relates to L1210. Description: Cytotoxicity against mouse L1210 cells after 72 hrs by WST8 assay. The test is classed as functional, cell-based.

Structures are written as SMILES. Converted amounts (≈) assume the structure as drawn.

In the case of `C=C1[C@H]2C[C@H]3OC(=O)/C=C\C=C\[C@H]([C@@H](C)O)OCC/C(C)=C/C(=O)OC[C@@]4(CCC(C)=C[C@H]4O2)[C@]13C`, the IC50 in the test on HL-60 (Homo sapiens, HL-60, 72 h, read-out: IC50) worked out at 25 ng/mL (≈ 50.1 nM); in the test on L1210 (Mus musculus, L1210, 72 h, read-out: IC50), 1.5 ng/mL (≈ 3.01 nM).
In the case of `CC1=C[C@H]2O[C@@H]3C[C@H]4OC(=O)/C=C\C=C\[C@H]([C@@H](C)O)OCC/C(C)=C/C(=O)OC[C@@]2(CC1)[C@]4(C)[C@]31CO1` [RORIDIN E], the IC50 in the test on HL-60 (hl-60) turned out to be 0.3 ng/mL (≈ 0.583 nM); in the test with L1210 (l1210), 0.2 ng/mL (≈ 0.389 nM).
For the compound `CC1=C[C@H]2O[C@@H]3C[C@H]4OC(=O)/C=C\C=C\C(=O)OCC[C@@H](C)[C@H](O)C(=O)OC[C@@]2(CC1)[C@]4(C)[C@]31CO1` [VERRUCARIN A], the half-inhibitory concentration (IC50) turned out to be 0.2 ng/mL (≈ 0.398 nM) in the test with HL-60 (hl-60) and 0.35 ng/mL (≈ 0.696 nM) in the test with L1210 (l1210).
For `CC1=C[C@H]2O[C@@H]3C[C@H]4OC(=O)/C=C\C=C\C(=O)OCC/C(C)=C/C(=O)OC[C@@]2(CC1)[C@]4(C)[C@]31CO1` [VERRUCARIN J], the IC50 in the test on HL-60 (hl-60) and in the test on L1210 (l1210) was 2.5 ng/mL (≈ 5.16 nM) in each case.

A word on the IC50: it is the concentration that gives 50% inhibition.
